Patent publication US20250000858A1, “FGFR TYROSINE KINASE INHIBITORS FOR THE TREATMENT OF ADVANCED SOLID TUMORS” (JANSSEN PHARMACEUTICA NV, priority 2021, published 2025)

Tested on: advanced solid tumors with FGFR mutations or fusions
Test: Phase 2 RAGNAR study (NCT04083976): tumor response per RECIST v1.1 or RANO by IRC and investigator (ORR, DOR, DCR, CBR, PFS, OS, best overall response)
Assay type: in vivo, human
Excerpt: Subjects ≥12 years of age with target FGFR mutations or any FGFR gene fusions were enrolled into the Broad Panel Cohort. […] A subgroup of subjects in the Broad Panel Cohort with a select panel of pre-specified FGFR markers were identified as the Core Panel Cohort (for analysis only). While the Broad Panel Cohort consists of target FGFR mutations and any fusions, the Core Panel Cohort consists of a select subset of FGFR mutations or fusions. Subjects with any other FGFR mutations that are not captured in the Broad Panel Cohort are included in the study as the Exploratory Cohort. A separate Cholangiocarcinoma Expansion Cohort enrolled subjects with target FGFR mutations or any FGFR gene fusion once the Broad Panel Cohort reached the cap of approximately 30 subjects for cholangiocarcinoma. […] Adolescent subjects enrolled in the Broad Panel Cohort (≥12 to <18 years) are considered part of the Broad Panel Cohort and the Pediatric Cohort.
(§1) Each dose was taken approximately at the same time each day, with or without food.
The Treated Population will consist of all subjects who receive at least 1 dose of study drug. The Treated Population is the primary population for efficacy and safety analyses. […] Adequate disease assessment is defined as having enough evidence to indicate that progression has or has not occurred.
Statistical Methods: For the Broad Panel Cohort, the primary endpoint was overall response rate (ORR) based on RECIST v1.1. or RANO as assessed by the IRC and was calculated with a 95% 2-sided exact confidence interval (CI). The primary endpoint was analyzed using data from the Treated Population (defined as all subjects who receive at least 1 dose of study drug) in the Broad Panel Cohort and the Core Panel Cohort. An error-spending function approach was used to split the significance level for the Broad Panel Cohort and the Core Panel Cohort.
as §1

[1] = BPC, IRC, Others (tumor histologies with 1 subject treated), N=14
[2] = BPC, IRC, PANCR (Pancreatic Cancer), N=13
[3] = BPC, IRC, PCA (Prostate Cancer), N=2
[4] = BPC, IRC, SALIV (Salivary Gland Cancer), N=5
[5] = BPC, IRC, STS (Soft Tissue Sarcoma), N=2
[6] = BPC, IRC, nonsqNSCLC (Non-squamous NSCLC), N=7
[7] = BPC, IRC, sqNSCLC (Squamous NSCLC), N=11
[8] = BRST (breast cancer), N=7, efficacy analysis set, investigator assessment

Compound: COc1cc(OC)cc(N(CCNC(C)C)c2ccc3ncc(-c4cnn(C)c4)nc3c2)c1 [erdafitinib, N-(3,5-dimethoxy-phenyl)-N′-(1-methylethyl)-N-[3-(1-methyl-1H-pyrazol-4-yl)quinoxalin-6-yl]ethane-1,2-diamine]
- Median PFS (95% CI) (BPC, IRC, Other, N=31): 5.52 (2.76, 8.61) months
- Clinical Benefit Rate n(%) (95% CI) [1]: 7 (50.0%)
- Confirmed Objective Response Rate n(%) (95% CI) [1]: 2 (14.3%)
- Disease Control Rate n(%) (95% CI) [1]: 11 (78.6%)
- Median DOR (95% CI) [1]: NE (NE, NE)
- Median PFS (95% CI) [1]: 4.39 (1.41, NE) months
- Clinical Benefit Rate n(%) (95% CI) [2]: 6 (46.2%)
- Confirmed Objective Response Rate n(%) (95% CI) [2]: 5 (38.5%)
- Disease Control Rate n(%) (95% CI) [2]: 12 (92.3%)
- Median PFS (95% CI) [2]: 4.76 (3.02, NE) months
- Clinical Benefit Rate n(%) (95% CI) [3]: 0 (NE, NE) %
- Confirmed Objective Response Rate n(%) (95% CI) [3]: 0 (NE, NE) %
- Disease Control Rate n(%) (95% CI) [3]: 0 (NE, NE) %
- Median PFS (95% CI) [3]: 1.26 (1.18, NE) months
- Clinical Benefit Rate n(%) (95% CI) [4]: 5 (100.0%)
- Confirmed Objective Response Rate n(%) (95% CI) [4]: 4 (80.0%)
- Disease Control Rate n(%) (95% CI) [4]: 5 (100.0%)
- Median PFS (95% CI) [4]: NE (8.34, NE)
- Clinical Benefit Rate n(%) (95% CI) [5]: 1 (50.0%)
- Confirmed Objective Response Rate n(%) (95% CI) [5]: 0 (NE, NE) %
- Disease Control Rate n(%) (95% CI) [5]: 1 (50.0%)
- Median PFS (95% CI) [5]: NE (3.94, NE)
- Clinical Benefit Rate n(%) (95% CI) (BPC, IRC, Total, N=178): 82 (46.1%)
- Confirmed Objective Response Rate n(%) (95% CI) (BPC, IRC, Total, N=178): 52 (29.2%)
- Disease Control Rate n(%) (95% CI) (BPC, IRC, Total, N=178): 129 (72.5%)
- Median PFS (95% CI) (BPC, IRC, Total, N=178): 4.21 (4.04, 5.52) months
- Clinical Benefit Rate n(%) (95% CI) [6]: 3 (42.9%)
- Confirmed Objective Response Rate n(%) (95% CI) [6]: 3 (42.9%)
- Disease Control Rate n(%) (95% CI) [6]: 4 (57.1%)
- Median PFS (95% CI) [6]: 4.07 (1.38, NE) months
- Clinical Benefit Rate n(%) (95% CI) [7]: 3 (27.3%)
- Confirmed Objective Response Rate n(%) (95% CI) [7]: 3 (27.3%)
- Disease Control Rate n(%) (95% CI) [7]: 10 (90.9%)
- Median PFS (95% CI) [7]: 5.03 (2.37, NE) months
- Median OS (95% CI) (BPC, BRST (Breast Cancer), N=14): 8.87 (4.86, NE) months
- Median OS (95% CI) (BPC, CCA (Cholangiocarcinoma), N=31): 14.46 (12.09, NE) months
- Median OS (95% CI) (BPC, CRC (Colorectal Cancer), N=6): 5.68 (1.22, NE) months
- Median OS (95% CI) (BPC, CRVX (Cervical Cancer), N=4): 4.40 (3.48, NE) months
- Median OS (95% CI) (BPC, CUP (Carcinoma of Unknown Primary), N=8): 11.99 (2.99, NE) months
- Median OS (95% CI) (BPC, EDMTL (Endometrial Cancer), N=6): NE (1.74, NE)
- Median OS (95% CI) (BPC, ESOPH (Esophageal Cancer), N=6): 3.42 (1.28, NE) months
- Median OS (95% CI) (BPC, GSTRC (Gastric Cancer), N=5): 3.29 (2.89, NE) months
- Median OS (95% CI) (BPC, HGG (High-grade Glioma), N=29): 6.49 (3.75, 14.39) months
- Median OS (95% CI) (BPC, HNSCC (Squamous Cell Head and Neck Cancers), N=5): NE (0.39, NE)
- Median OS (95% CI) (BPC, LGG (Low-grade Glioma), N=6): 10.94 (5.72, NE) months
- Median OS (95% CI) (BPC, OVAR (Ovarian Cancer), N=4): NE (NE, NE)
- Median OS (95% CI) (BPC, Other, N=31): NE (3.94, NE)
- Median OS (95% CI) (BPC, Others (tumor histologies with 1 subject treated), N=14): NE (3.29, NE)
- Median OS (95% CI) (BPC, PANCR (Pancreatic Cancer), N=13): 12.12 (7.26, NE) months
- Median OS (95% CI) (BPC, PCA (Prostate Cancer), N=2): NE (3.48, NE)
- Median OS (95% CI) (BPC, SALIV (Salivary Gland Cancer), N=5): NE (NE, NE)
- Median OS (95% CI) (BPC, STS (Soft Tissue Sarcoma), N=2): NE (3.94, NE)
- Median OS (95% CI) (BPC, Total, N=178): 10.94 (7.89, 14.26) months
- Median OS (95% CI) (BPC, nonsqNSCLC (Non-squamous NSCLC), N=7): NE (2.40, NE)
- Median OS (95% CI) (BPC, sqNSCLC (Squamous NSCLC), N=11): 6.83 (2.37, NE) months
- Median DOR [8]: 6.08 (NE, NE) months
- Objective Response Rate [8]: 3 (42.9%) (9.9%, 81.6%)
